Reference: patent US6376510B1, “Neuromuscular relaxants” (Newlaxant LLC, priority 1997, dated 2002)
Read-outs that look alike come from different tables or passages of the source.

Columns and labels:
[1] = test system: anesthetized rats (evoked responses of anterior tibial muscle); assay: In vivo neuromuscular block and cardiovascular side effects, anesthetized rat (Example 8, Table 3); details: for RI (recovery index): spontaneous recovery, 25-75% neuromuscular response; for Onset: time to 80-85% neuromuscular block
Description: The neuromuscular blocking activity and other effects (e.g. cardiovascular side effects) of selected agents were investigated on several different experimental animals. Justification for this approach lies in the commonly known fact that the pharmacodynamic and pharmacokinetic properties of these agents are markedly variable from species to species. Therefore, the most important aspects of the projected therapeutic utility of these agents, e.g., neuromuscular blocking potency, onset and duration of action, and side effects cannot be ascertained in “in vitro” preparations or by using only one species of animals.
a) Adult, male albino rats were anesthetized with pentobarbital injected intraperitoneally. The trachea was cannulated for artificial respiration via a small animal respirator. The carotid artery was cannulated for recording blood pressure via a transducer and heart rate by a cardiotachograph on a polygraph. One external jugular vein was cannulated for i.v. drug administration. Neuromuscular function was monitored by electromyography, recording evoked responses from the anterior tibial muscle as a result of supramaximal nerve stimuli consisting of single or “train-of-four” rectangular pulses of 0.1-0.2 msec duration every 10-12 seconds, delivered to the sciatic or common peroneal nerve by a laboratory nerve stimulator. Another mode of stimulation included repeated single stimuli delivered at 0.1 Hz or 1 Hz. […] The agents were dissolved in physiologic saline and injected intravenously at appropriate time intervals. The intensity, onset, and duration of neuromuscular block and its type were determined with each agent. Through administering several doses, the doses corresponding to 50%, 80% and 90% neuromuscular block were determined. All agents were compared with selected standard neuromuscular blocking compounds, e.g. succinylcholine, pancuronium, mivacurium, or rocuronium.
Onset=time in minutes to 80-85% neuromuscular block.
RI=recovery index, minutes, spontaneous recovery, 25-75% neuromuscular response.
VB=vagal block, %, at 80-85% neuromuscular blocking dose.
ΔHR=change in heart rate, %, at 80-85% neuromuscular blocking dose.
ΔBP=change in arterial blood pressure, %, at 80-85% neuromuscular blocking dose.

rabbits = assay: In vivo neuromuscular block and cardiovascular side effects, rabbit (Example 8, Table 7); details: for ED50: intravenous dose causing 50% neuromuscular block; for RI (recovery index): spontaneous recovery, 25-75% neuromuscular response; for Onset: time to 80-85% neuromuscular block
[2] = test system: anesthetized juvenile pigs; assay: animal or person; assay type: in vivo; details: pig; for ED50: intravenous dose causing 50% neuromuscular block; for RI (recovery index): spontaneous recovery, 25-75% neuromuscular response; for Onset: time to 80-85% neuromuscular block
Description: Both electromyographic and mechanomyographic responses can be quantified.
The techniques described under a) and b) were employed in other species as needed with the modification that juvenile pigs were initially anesthetized with inhalation of halothane (Table 5) and monkeys were initially sedated with intramuscular ketamine injections prior to inducing and maintaining general anesthesia using pentobarbital and propofol administered intravenously (Table 6).

[3] = rat, intravenous dose causing 50% neuromuscular block
[4] = rat, at 80-85% neuromuscular blocking dose
[5] = at 80-85% neuromuscular blocking dose
[6] = Oryctolagus cuniculus, read-out: ED50

SMILES | VB (vagal block) ([1]; rat, in vivo) [%] | ΔBP (change in arterial blood pressure) ([1]; rat, in vivo) [%] | ΔH (change in heart rate) ([1]; rat, in vivo) [%] | ED50 [1, 3] [mg/kg] | RI (recovery index) ([1]; rat) [min] | Onset ([1]; rat) [min] | ΔBP (change in arterial blood pressure) (rabbits; in vivo) [%] | ΔH (change in heart rate) (rabbits; in vivo) [%] | ED50 (rabbits) [mg/kg] | RI (recovery index) (rabbits) [min] | Onset (rabbits) [min] | VB (vagal block) [1, 4] [%] | ΔBP (change in arterial blood pressure) [1, 4] [%] | ΔH (change in heart rate) [1, 4] [%] | RI (recovery index) [2] [min] | Onset [2] [min] | VB (vagal block) ([2]; in vivo) [%] | ΔBP (change in arterial blood pressure) ([2]; in vivo) [%] | ΔH (change in heart rate) ([2]; in vivo) [%] | ED50 [2] [mg/kg] | other results
COc1cc(C[N+]23CCC(CC2)C(OC(=O)[C@@H]2[C@@H](C(=O)OC4C[N+]5(Cc6ccc(OC(C)=O)c(OC)c6)CCC4CC5)[C@H]4C=C[C@@H]2C4)C3)ccc1OC(C)=O.[Br-].[Br-] (relative stereo) [bis[N-(4-acetoxy-3-methoxybenzyl)quinuclidinium-3-yl]trans-3,6-endomethylene-1,2,3,6-tetrahydrophthalate dibromide] | 70 | −10 | −5 | 2 | 3 | 1.8 | 0 | 0 | 0.115 | 4.5 | 2.8 |  |  |  |  |  |  |  |  |  | 
COc1ccc(OC)c(C[N+]2(C)C3CCC2CC(OC(=O)C2C4C=CC(C4)C2C(=O)OC2CC4CCC(C2)[N+]4(C)Cc2cc(OC)ccc2OC)C3)c1.[Br-].[Br-] (stereo not drawn) [bis[N-(2,5-dimethoxybenzyl)tropanium-3α-yl]trans-3,6-endomethylene-1,2,3,6-tetrahydrophthalate dibromide] |  |  |  | 0.057 | 1.9 | 1 | 0 | 0 | 0.01 | 9 | 4 | 32 | 0 | 0 |  |  |  |  |  |  | 
COc1cc(C[N+]2(C)[C@@H]3CC[C@H]2C[C@@H](OC(=O)CCCCCCCCCC(=O)O[C@H]2C[C@H]4CC[C@@H](C2)[N+]4(C)Cc2cc(OC)c(OC)c(OC)c2)C3)cc(OC)c1OC.[Br-].[Br-] (stereo partly drawn) [bis[N-(3,4,5-trimethoxybenzyl)tropanium-3α-yl]1,9-nonanedicarboxylate dibromide] |  |  |  |  | 1.8 | 0.8 |  |  |  | 2.5 | 1.3 | 10 | 0 | 0 | 2.4 | 1.5 |  |  |  |  | ED50 ([2]; Sus scrofa, read-out: ED50): 0.31 mg/kg; VB (vagal block) [2, 5]: 40%; ΔBP (change in arterial blood pressure) [2, 5]: 0%; ΔH (change in heart rate) [2, 5]: 0%; ED50 ([1]; Rattus norvegicus, iv): 0.18 mg/kg; ED50 (rabbits; [6]): 0.07 mg/kg; ΔBP (change in arterial blood pressure) (rabbits; [5]): 0%; ΔH (change in heart rate) (rabbits; [5]): 0%
CC(=O)Oc1ccc(C[N+]2(C)C3CCC2CC(OC(=O)C2C4C=CC(C4)C2C(=O)OC2CC4CCC(C2)[N+]4(C)Cc2ccc(OC(C)=O)c(OC(C)=O)c2)C3)cc1OC(C)=O.[Br-].[Br-] (stereo not drawn) [bis[N-(3,4-diacetoxybenzyl)tropanium-3β-yl]trans-3,6-endomet] [bis[N-(3,4-diacetoxybenzyl)tropanium-3β-yl]trans-3,6-endomethylene-1,2,3,6-tetrahydrophthalate dibromide] |  |  |  | 0.258 | 0.5 | 0.68 | 0 | 0 | 0.21 | 0.75 | 0.8 | 45 | 0 | 0 | 2 | 1.1 | 100 | −5 | −10 | 0.16 | 
CCC(=O)Oc1ccc(C[N+]2(C)C3CCCC2CC(OC(=O)CCCCC(=O)OC2CC4CCCC(C2)[N+]4(C)Cc2ccc(OC(=O)CC)c(OC(=O)CC)c2)C3)cc1OC(=O)CC.[Br-].[Br-] (centres unmarked) [bis[N-(3,4-dipropionyloxybenzyl)granataninium-3-yl]adipate dibromide] | 0 | −4 | 0 | 0.32 | 0.35 | 0.4 | 0 | 0 | 0.16 | 0.5 | 0.5 |  |  |  | 0.4 | 0.45 | 43 | 0 | 0 | 0.275 | 
CCC(=O)Oc1ccc(C[N+]2(C)C3CCCC2CC(OC(=O)C2CCC2C(=O)OC2CC4CCCC(C2)[N+]4(C)Cc2ccc(OC(=O)CC)c(OC(=O)CC)c2)C3)cc1OC(=O)CC.[Br-].[Br-] (centres unmarked) [bis[N-(3,4-dipropionyloxybenzyl)granataninium-3-yl]cyclobutane-1,2-dicarboxylate dibromide] | 0 | 0 | 0 | 0.155 | 0.35 | 0.45 | 0 | 0 | 0.225 | 0.5 | 0.55 |  |  |  | 0.4 | 0.5 | 18 | 0 | 0 | 0.19 | 
COc1cc(C[N+]2(C)[C@@H]3CC[C@H]2C[C@@H](OC(=O)C2CCC2C(=O)O[C@H]2C[C@H]4CC[C@@H](C2)[N+]4(C)Cc2cc(OC)c(OC(C)=O)c(OC)c2)C3)cc(OC)c1OC(C)=O.[Br-].[Br-] (stereo partly drawn) [bis[N-(4-acetoxy-3,5-dimethoxybenzyl)tropanium-3α-yl]cyclobutane-1,2-dicarboxylate dibromide] |  |  |  |  | 0.45 | 0.4 |  |  |  | 0.55 | 0.5 | 20 | 0 | 0 |  |  |  |  |  |  | ED50 ([1]; Rattus norvegicus, iv): 0.367 mg/kg; ED50 (rabbits; [6]): 0.298 mg/kg; ΔBP (change in arterial blood pressure) (rabbits; [5]): 0%; ΔH (change in heart rate) (rabbits; [5]): 0%
